Several values for one entry are separate records, joined by “and”; a condition that tells them apart may be missing. Equal values may be shown once.

The values that follow come from US20250304990A1, “HERBICIDE RESISTANCE” (SYNGENTA CROP PROTECTION AG, priority 2021, published 2025).

Assay type in all cases: in vivo
Experiment [1] relates to D4293 (V277A mutant Arabidopsis thaliana HST) containing tobacco plant. The experiment in a line: Herbicide damage score after spraying, Example 3. Conditions: averaged across transgenic population. As to the method: (§1) In order to determine if the newly discovered mutations detailed in Example 1 confer resistance to HST inhibiting compounds when expressed in plants, GM tobacco lines are to be produced and tested with HST inhibiting compounds. Transgenic tobacco plants expressing the Arabidopsis HST gene with and without mutations were tested.
(§2) Populations of transgenic tobacco comprising 20-30 transgenic events per plant transformation constructs were generated as described in Example 2. These lines were clonally propagated and 1 clone per event was sprayed with 500, 100 or 50 g ai/ha of compound 1+0.2% Genapol X080 with a spray volume of 200 L/Ha (“g ai/ha” refers to grams of active compound per hectare).
(§3) Herbicidal damage was visually assessed across the population and a herbicide damage score given at 7 and 14 days. A score of 0 indicates no visible damage or stunting whereas a score of 100 indicates a complete death of the plant. 20 transgenic events (i.e. individual transgenic plants) from each GM tobacco line were transplanted to soil 1 week prior to spraying with HST inhibiting compounds. WT tobacco was included as a control.
(§4) The values in Tables 8 to 14 below refer to percentage of damage to the tested plants and show the damage scores for 20 populations of plants expressing either Arabidopsis WT HST gene (SEQ ID NO. 14), the Arabidopsis HST mutated gene according to SEQ ID NO. 27, the Arabidopsis HST mutated gene according to SEQ ID NO. 28, the Arabidopsis HST mutated gene according to SEQ ID NO. 29, the Arabidopsis HST mutated gene according to SEQ ID NO. 30, or the Arabidopsis HST mutated gene according to SEQ ID NO. 31. A control population of wild-type Samsun tobacco was also assessed for herbicide damage. […] However the mutated versions of the HST gene carrying the F276I, V277A, F280I or F280L mutations (SEQ ID NOs: 27, 28, 30 or 31) clearly display increased tolerance.

Experiment [2] deals with D4294 (T278N mutant Arabidopsis thaliana HST) containing tobacco plant. The experiment in a line: Herbicide damage score after spraying, Example 3. Conditions: for percentage of damage: D4294 AraHST V003 T278N, per GM event; for Average percentage damage: D4294 T278N, averaged across transgenic population. How it is done: as §1, §2, §3, §4
Experiment [3] concerns WT tobacco. Kind of experiment: Herbicide damage score after spraying, Example 3. Conditions: WT tobacco control, per plant. How it is done:
as §1, §2, §3, §4

The test system of experiment [4] is D4291 (WT Arabidopsis thaliana HST) containing tobacco plant. The experiment in a line: Herbicide damage score after spraying, Example 3. Conditions: for Average percentage damage: D4291, mutation n.a., averaged across transgenic population; for tolerance to herbicide: overexpression of Arabidopsis HST gene (SEQ ID NO.14) in tobacco. As to the method: as §1, §2, §3, §4

Experiment [5] relates to D4295 (F280I mutant Arabidopsis thaliana HST) containing tobacco plant. The experiment in a line: Herbicide damage score after spraying, Example 3. The settings on record: averaged across transgenic population. As to the method:
as §1, §2, §3, §4

Experiment [6] deals with D4292 (F276I mutant Arabidopsis thaliana HST) containing tobacco plant. The experiment in a line: Herbicide damage score after spraying, Example 3. Conditions: averaged across transgenic population. As to the method:
as §1, §2, §3, §4

In experiment [7] the test system is D4424 (WT Oryza sativa HST) containing tobacco plant. The experiment in a line: Herbicide damage score after spraying, Example 4. The settings on record: for Average percentage damage: D4424, mutation n.a., averaged across transgenic population; for tolerance to herbicide: overexpression of Oryza sativa HST gene (SEQ ID NO.18) in tobacco. How it is done: (§5) In order to determine if the newly discovered mutations detailed in Example 1 confer resistance to HST inhibiting compounds when expressed in plants, GM tobacco lines were produced and tested with HST inhibiting compounds. Transgenic tobacco plants expressing the Oryza sativa HST gene with and without mutations were tested.
(§6) Populations of transgenic tobacco comprising 20-30 transgenic events per plant transformation constructs were generated as described in Example 2. These lines were clonally propagated and 1 clone per event was sprayed with 500, 100 or 50 g ai/ha of compound 1+0.2% (w/v) Genapol X080 with a spray volume of 200 L/Ha. (“g ai/ha” refers to grams of active compound per hectare).
(§7) Herbicidal damage was visually assessed across the population and a herbicide damage score given at 7 and 14 days. A score of 0 indicates no visible damage or stunting whereas a score of 100 indicates a complete death of the plant. 20 transgenic events (i.e. individual transgenic plants) from each GM tobacco line were transplanted to soil 1 week prior to spraying with HST inhibiting compounds. WT tobacco was included as a control. The mutated genes are identified in Table 16 below.
(§8) The values in Tables 17 to 23 below refer to percentage of damage to the tested plants and show the damage scores for 20 populations of plants expressing either Oryza sativa WT HST gene (SEQ ID NO. 18), the Oryza sativa HST mutated gene according to SEQ ID NO. 47, the Oryza sativa HST mutated gene according to SEQ ID NO. 48, the Oryza sativa HST mutated gene according to SEQ ID NO. 49, the Oryza sativa HST mutated gene according to SEQ ID NO. 50, or the Oryza sativa HST mutated gene according to SEQ ID NO. 51. A control population of wild-type Samsun tobacco was also assessed for herbicide damage. […] However the mutated versions of the HST gene carrying the F262I, V263A, […], or F266L mutations (SEQ ID NOs: 47, 48, 50 or 51) clearly display increased tolerance.

Experiment [8] has as its system D4426 (V263A mutant Oryza sativa HST) containing tobacco plant. Kind of experiment: Herbicide damage score after spraying, Example 4. The settings on record: for Average percentage damage: D4426 V263A, averaged across transgenic population. How it is done: as §5, §6, §7, §8
For experiment [9], the system named is D4428 (F266I mutant Oryza sativa HST) containing tobacco plant. Kind of experiment: Herbicide damage score after spraying, Example 4. Conditions: averaged across transgenic population. How it is done:
as §5, §6, §7, §8

The subject of experiment [10] is WT tobacco. The experiment in a line: Herbicide damage score after spraying, Example 4. The settings on record: WT tobacco (Example 4), per plant. How it is done:
as §5, §6, §7, §8

Experiment [11] concerns D4425 (F262I mutant Oryza sativa HST) containing tobacco plant. The experiment in a line: Herbicide damage score after spraying, Example 4. Conditions: averaged across transgenic population. As to the method: as §5, §6, §7, §8
Experiment [12] deals with D4429 (F266L mutant Oryza sativa HST) containing tobacco plant. The experiment in a line: Herbicide damage score after spraying, Example 4. The settings on record: averaged across transgenic population. As to the method: as §5, §6, §7, §8
Experiment [13] deals with D4427 (T264N mutant Oryza sativa HST) containing tobacco plant. Kind of experiment: Herbicide damage score after spraying, Example 4. Conditions: for percentage of damage: D4427 OsHST V003 T264N, per event; for Average percentage damage: D4427 T264N, averaged across transgenic population. How it is done: as §5, §6, §7, §8

Regarding `Cc1nn(C)c(=O)c(-c2c(F)ccc(Cl)c2CCc2cnn(C)c2)c1O` [B5b, 4-[3-chloro-6-fluoro-2-[2-(1-methylpyrazol-4-yl)ethyl]phenyl]-5-hydroxy-2,6-dimethyl-pyridazin-3-one], the Average percentage damage was 15% in experiment [1] (T3 B5b 100 gai/ha); 95% in experiment [2] (T3 B5b 100 gai/ha); 47% in [4] (T3 B5b 100 gai/ha); 29% in experiment [5] (T3 B5b 100 gai/ha); 26% in experiment [6] (T3 B5b 100 gai/ha); 82% in experiment [7] (T3 B5b 100 gai/ha). For the same compound, the Average percentage damage is given as 4% in [8] (T3 B5b 100 gai/ha); 34% in [9] (T3 B5b 100 gai/ha); 36% in experiment [11] (T3 B5b 100 gai/ha); 18% in experiment [12] (T3 B5b 100 gai/ha); 96% in experiment [13] (T3 B5b 100 gai/ha). Further, the percentage of damage was 100% and 75% and 95% and 98% and 99% and 90% in [2] (T3 B5b 100 gai/ha); 90% and 95% in the experiment on WT tobacco [3] (T3 B5b 100 gai/ha); 5% and 0% and 10% and 3% in [8] (T3 B5b 100 gai/ha, D4426 OsHST V002 V263A, per event); 95% and 96% and 97% and 93% and 90% with WT tobacco [10] (T3 B5b 100 gai/ha); 96% and 98% and 95% and 97% and 99% and 90% in [13] (T3 B5b 100 gai/ha). The tolerance to herbicide entry in experiment [4] and in experiment [7] was “does not increase tolerance” each time.

As to `Cc1nn(C)c(=O)c(-c2c(F)ccc(Cl)c2CCc2ccnc(F)c2)c1O` [B5a, 4-[3-chloro-6-fluoro-2-[2-(2-fluoro-4-pyridyl)ethyl]phenyl]-5-hydroxy-2,6-dimethyl-pyridazin-3-one], the Average percentage damage in [1] (T2 B5a 100 gai/ha) was 28%; in [2] (T2 B5a 100 gai/ha) it was 96%; in experiment [4] (T2 B5a 100 gai/ha) it was 89%; in [5] (T2 B5a 100 gai/ha), 60%; in [6] (T2 B5a 100 gai/ha) it was 45%; in experiment [7] (T2 B5a 100 gai/ha) it was 93%. Besides, the Average percentage damage in experiment [8] (T2 B5a 100 gai/ha) is on record as 22%; in experiment [9] (T2 B5a 100 gai/ha), 75%; in experiment [11] (T2 B5a 100 gai/ha) it was 69%; in [12] (T2 B5a 100 gai/ha), 42%; in experiment [13] (T2 B5a 100 gai/ha), 96%. Further, the percentage of damage is 100% and 95% and 90% and 99% in [2] (T2 B5a 100 gai/ha); 95% and 90% and 85% in the experiment on WT tobacco [3] (T2 B5a 100 gai/ha); 90% and 96% and 95% and 97% and 98% and 85% and 80% in experiment [7] (T2 B5a 100 gai/ha, D4424 pBin TMV OsHST, per event); 90% and 95% in the experiment with WT tobacco [10] (T2 B5a 100 gai/ha); 95% and 98% and 80% and 97% and 96% and 99% and 100% in [13] (T2 B5a 100 gai/ha). For the same compound, the tolerance to herbicide entry in experiment [4] and in experiment [7] was “does not increase tolerance” each time.

`Cc1nc2ccc(CCc3c(Cl)ccc(F)c3-c3c(O)c(C)nn(C)c3=O)cc2o1` [B8a, 4-[3-chloro-6-fluoro-2-[2-(2-methyl-1,3-benzoxazol-6-yl)ethyl]phenyl]-5-hydroxy-2,6-dimethyl-pyridazin-3-one]: the Average percentage damage was determined as 16% in experiment [1] (T4 B8a 50 gai/ha); 90% in experiment [2] (T4 B8a 50 gai/ha); 64% in [4] (T4 B8a 50 gai/ha); 30% in experiment [5] (T4 B8a 50 gai/ha); 33% in experiment [6] (T4 B8a 50 gai/ha); 36% in experiment [7] (T4 B8a 50 gai/ha). Besides, the Average percentage damage in [8] (T4 B8a 50 gai/ha) is recorded as 14%; in [9] (T4 B8a 50 gai/ha), 27%; in [11] (T4 B8a 50 gai/ha) it was 28%; in [12] (T4 B8a 50 gai/ha), 22%; in [13] (T4 B8a 50 gai/ha), 46%. The percentage of damage is 85% and 95% and 90% with WT tobacco [3] (T4 B8a 50 gai/ha); 95% and 96% in the experiment on WT tobacco [10] (T4 B8a 50 gai/ha). The tolerance to herbicide result in experiment [4] and in experiment [7] was “does not increase tolerance” in each case.
